# Assay results as given in patent US20120095055A1, “HEXAHYDROCYCLOPENTYL[f]INDAZOLE 5-HYDROXYMETHYL ETHANOLS AND DERIVATIVES THEREOF AS SELECTIVE GLUCOCORTICOID RECEPTOR MODULATORS” (Merck Sharp & Dohme, Corp., priority 2009, published 2012).
# Biological target: T1, glucocorticoid receptor (GR) (Homo sapiens, UniProt P04150)
# T1 construct: endogenous in cells; host or cells: HeLa (ATCC) cell lysate supernatant
# T1 sequence (P04150 1-777): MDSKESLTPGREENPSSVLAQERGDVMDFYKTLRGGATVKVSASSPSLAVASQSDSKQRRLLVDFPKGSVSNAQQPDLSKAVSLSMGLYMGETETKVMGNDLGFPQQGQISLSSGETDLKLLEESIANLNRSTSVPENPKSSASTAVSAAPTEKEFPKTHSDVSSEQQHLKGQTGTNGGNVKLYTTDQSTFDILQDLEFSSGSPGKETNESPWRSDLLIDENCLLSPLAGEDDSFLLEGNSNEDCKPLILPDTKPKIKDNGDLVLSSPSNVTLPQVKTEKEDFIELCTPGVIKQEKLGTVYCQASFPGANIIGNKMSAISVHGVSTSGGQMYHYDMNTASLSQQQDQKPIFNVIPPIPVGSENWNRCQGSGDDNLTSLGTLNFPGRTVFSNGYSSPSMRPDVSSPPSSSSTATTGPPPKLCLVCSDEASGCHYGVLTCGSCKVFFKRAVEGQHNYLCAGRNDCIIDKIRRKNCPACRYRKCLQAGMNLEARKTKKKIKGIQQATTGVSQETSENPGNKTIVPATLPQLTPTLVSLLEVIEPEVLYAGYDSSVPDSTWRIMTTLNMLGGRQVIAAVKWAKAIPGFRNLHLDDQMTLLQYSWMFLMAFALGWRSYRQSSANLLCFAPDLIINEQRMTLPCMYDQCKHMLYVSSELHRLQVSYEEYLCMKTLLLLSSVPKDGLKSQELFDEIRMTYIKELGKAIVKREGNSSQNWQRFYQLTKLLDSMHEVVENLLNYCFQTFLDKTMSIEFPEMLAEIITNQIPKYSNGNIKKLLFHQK
# Test: GR Ligand Binding Assay (3H-dexamethasone displacement, HeLa cell lysate)
# Conditions: 3H-DEX trace, DEX as reference, read-out: GR BIND Ki
# Protocol: Binding Buffer: TEGM (10 mM Tris-HCl, 1 mM EDTA, 10% glycerol, 1 mM beta-mecaptoethanol, 10 mM Sodium Molybdate, pH 7.2)
# Dexmethasone-methyl-^3H, (DEX*); (Amersham cat# TRK645) Dexamethasone(DEX) (Sigma, cat# D1756):
# Cells (Hall R. E., et al., European Journal of Cancer, 30A: 484-490 (1994)) HeLa (ATCC) cultured in RPMI 1640 (Gibco 11835-055) containing 20 mM Hepes, 4 mM L-glu, 10 ug/ml of human insulin (Sigma, I-0259), 10% FBS and 20 ug/ml of Gentamicin (Gibco#15710-072) are rinsed twice in PBS. Phenol red-free Trypsin-EDTA is diluted in the same PBS 1:10. The cell layers are rinsed with 1× Trypsin, extra Trypsin is poured out, and the cell layers are incubated at 37° C. for ˜2 min. The flask is tapped and checked for signs of cell detachment. Once the cells begin to slide off the flask, the complete media is added. The cells are counted at this point, then diluted to the appropriate concentration and split into flasks or dishes for further culturing (Usually 1:3 to 1:6 dilution).
# When the cells are 70 to 85% confluent, they are detached as described above, and collected by centrifuging at 1000 g for 10 minutes at 4° C. The cell pellet is washed twice with TEGM (10 mM Tris-HCl, 1 mM EDTA, 10% glycerol, 1 mM beta-mercaptoethanol, 10 mM Sodium Molybdate, pH 7.2). After the final wash, the cells are resuspended in TEGM at a concentration of 10^7 cells/mL. The cell suspension is snap frozen in liquid nitrogen or ethanol/dry ice bath and transferred to −80° C. freezer on dry ice. Before setting up the binding assay, the frozen samples are left on ice-water to just thaw (˜1 hr). Then the samples are centrifuged at 12,500 g to 20,000 g for 30 min at 4° C. The supernatant is used to set-up assay right away. If using 50 μL of supernatant, the test compound can be prepared in 50 μL of the TEGM buffer.
# 1×TEGM buffer is prepared, and the isotope-containing assay mixture is prepared in the following order: EtOH (2% final concentration in reaction), ^3H-DEX (Amersham Biosciences) and 1×TEGM. [e.g. For 100 samples, 200 μL (100×2) of EtOH+4.25 μL of 1:10 ^3H—Dex stock+2300 μL (100×23) 1×TEGM]. The compound is serially diluted, e.g., if starting final conc. is 1 μM, and the compound is in 25 μL of solution, for duplicate samples, 75 μL of 4×1 μM solution is made and 3 μL of 100 μM is added to 72 μL of buffer, and 1:5 serial dilution.
# 25 μL, of 3H-DEX (6 nM) trace and 25 μL compound solution are first mixed together, followed by addition of 50 μL receptor solution. The reaction is gently mixed, spun briefly at about 200 rpm and incubated at 4° C. overnight. 100 μL of 50% HAP slurry is prepared and added to the incubated reaction which is then vortexed and incubated on ice for 5 to 10 minutes. The reaction mixture is vortexed twice more to resuspend HAP while incubating reaction. The samples in 96-well format are then washed in wash buffer using The FilterMate™ Universal Harvester plate washer (Packard). The washing process transfers HAP pellet containing ligand-bound expressed receptor to Unifilter-96 GF/B filter plate (Packard). The HAP pellet on the filter plate is incubated with 50 μL of MICROSCINT (Packard) scintillint for 30 minutes before being counted on the TopCount microscintillation counter (Packard). IC50s are calculated using DEX as a reference.
row,SMILES,Ki [nM]
1,"C[C@]12Cc3cnn(-c4ccc(F)cc4)c3C=C1CC[C@@]2(CO)CC1OC(=O)c2ccccc21 (stereo partly drawn) [Example 11, 3-{[(4αS,5R)-1-(4-fluorophenyl)-5-(hydroxymethyl)-4α-methyl-1,4,4α,5,6,7,7a,8-octahydrocyclopenta[f]indazol-5-yl]methyl}-2-benzofuran-1(3H)-one]",19.2
2,"C[C@]12Cc3cnn(-c4ccc(F)cc4)c3C=C1CC[C@@]2(CO)CC(O)c1ncccc1F (single isomer, unassigned) [Example 10b]",1.8
3,"C[C@]12Cc3cnn(-c4ccccc4)c3C=C1CC[C@@]2(CO)CC(O)c1cccnc1 (single isomer, unassigned) [Example 29b]",8.2
4,"COc1ccc(C(O)C[C@]2(CO)CCC3=Cc4c(cnn4-c4ccc(F)cc4)C[C@@]32C)nc1 (single isomer, unassigned) [Example 24a]",3.1
5,"Cc1cccc(C(O)C[C@]2(CO)CCC3=Cc4c(cnn4-c4ccc(F)cc4)C[C@@]32C)c1 (single isomer, unassigned) [Example 5b]",0.9
6,"C[C@]12Cc3cnn(-c4ccc(F)cc4)c3C=C1CC[C@@]2(CO)CC(O)c1ccncc1 (single isomer, unassigned) [Example 17b]",7.5
7,"C[C@]12Cc3cnn(-c4cccc(F)c4)c3C=C1CC[C@@]2(CO)CC(O)c1cccnc1 (single isomer, unassigned) [Example 27a]",13.9
8,"Cc1cccc(C(O)C[C@]2(CO)CCC3=Cc4c(cnn4-c4ccc(F)cc4)C[C@@]32C)c1 (single isomer, unassigned) [Example 5a]",1.4
9,"C[C@]12Cc3cnn(-c4ccc(F)cc4)c3C=C1CC[C@@]2(CO)CC(O)c1ccccn1 (single isomer, unassigned) [Example 1b]",4
10,"COc1ccc(C(O)C[C@]2(CO)CCC3=Cc4c(cnn4-c4ccc(F)cc4)C[C@@]32C)nc1 (single isomer, unassigned) [Example 24b]",7.5
11,"C[C@]12Cc3cnn(-c4ccc(F)cc4)c3C=C1CC[C@@]2(CO)CC(O)c1cccnc1 (single isomer, unassigned) [Example 15b]",8.3
12,"C[C@]12Cc3cnn(-c4cccc(F)c4)c3C=C1CC[C@@]2(CO)CC(O)c1cccnc1 (single isomer, unassigned) [Example 27b]",13.4
13,"C[C@]12Cc3cnn(-c4ccccc4)c3C=C1CC[C@@]2(CO)CC(O)c1ccccn1 (single isomer, unassigned) [Example 23a]",7.7
14,"C[C@]12Cc3cnn(-c4ccc(F)cc4)c3C=C1CC[C@@]2(CO)CC(O)c1ncccc1F (single isomer, unassigned) [Example 10a]",3.1
15,"C[C@]12Cc3cnn(-c4ccc(F)cc4)c3C=C1CC[C@@]2(CO)CC(O)C1CCCCC1 (single isomer, unassigned) [Example 18a, 1-cyclohexyl-2-[(4αS)-1-(4-fluorophenyl)-5-(hydroxymethyl)-4α-methyl-1,4,4α,5,6,7-hexahydrocyclopenta[f]indazol-5-yl]ethanol]",1.7
16,"C[C@]12Cc3cnn(-c4ccc(F)cc4)c3C=C1CC[C@@]2(CO)CC(O)c1ccc(F)cn1 (single isomer, unassigned) [Example 22a]",2.3
17,"Cc1ccc(C(O)C[C@]2(CO)CCC3=Cc4c(cnn4-c4ccc(F)cc4)C[C@@]32C)cc1 (single isomer, unassigned) [Example 2a]",2.2
18,"CC(C)C(O)C[C@]1(CO)CCC2=Cc3c(cnn3-c3ccc(F)cc3)C[C@@]21C (single isomer, unassigned) [Example 14a]",6.4
19,"C[C@]12Cc3cnn(-c4ccc(F)cc4)c3C=C1CC[C@@]2(CO)CC(O)c1ccccc1Cl (single isomer, unassigned) [Example 3b]",0.9
20,"C[C@]12Cc3cnn(-c4ccc(F)cc4)c3C=C1CC[C@@]2(CO)CC(O)c1ccccc1Cl (single isomer, unassigned) [Example 3a]",0.9
21,"COc1cccnc1C(O)C[C@]1(CO)CCC2=Cc3c(cnn3-c3ccc(F)cc3)C[C@@]21C (single isomer, unassigned) [Example 21b]",3.7
22,"COc1cccnc1C(O)C[C@]1(CO)CCC2=Cc3c(cnn3-c3cccc(F)c3)C[C@@]21C (single isomer, unassigned) [Example 26b]",35.5
23,"C[C@]12Cc3cnn(-c4ccc(F)cc4)c3C=C1CC[C@@]2(CO)CC(O)C1CC1 (single isomer, unassigned) [Example 20b, 1-cyclopropyl-2-[(4αS)-1-(4-fluorophenyl)-5-(hydroxymethyl)-4α-methyl-1,4,4α,5,6,7-hexahydrocyclopenta[f]indazol-5-yl]ethanol]",15.1
24,"C[C@]12Cc3cnn(-c4ccccc4)c3C=C1CC[C@@]2(CO)CC(O)c1cccnc1 (single isomer, unassigned) [Example 29a]",11.8
25,"C[C@]12Cc3cnn(-c4ccc(F)cc4)c3C=C1CC[C@@]2(CO)CC(O)c1cccc(C(F)(F)F)c1 (single isomer, unassigned) [Example 7b]",0.9
26,"C[C@]12Cc3cnn(-c4ccc(F)cc4)c3C=C1CC[C@@]2(CO)CC(O)c1ccncc1 (single isomer, unassigned) [Example 17a]",6.4
27,"C[C@]12Cc3cnn(-c4ccc(F)cc4)c3C=C1CC[C@@]2(CO)CC(O)C(F)(F)F (single isomer, unassigned) [Example 28a]",8.3
28,"C[C@]12Cc3cnn(-c4ccc(F)cc4)c3C=C1CC[C@@]2(CO)CC(O)c1cccc(Cl)c1 (stereo partly drawn) [Example 8, 1-(3-chlorophenyl)-2-[(4αS,5R)-1-(4-fluorophenyl)-5-(hydroxymethyl)-4α-methyl-1,4,4α,5,6,7-hexahydrocyclopenta[f]indazol-5-yl]ethanol]",1.2
29,"C[C@]12Cc3cnn(-c4ccc(F)cc4)c3C=C1CC[C@@]2(CO)CC(O)C1CCCCC1 (single isomer, unassigned) [Example 18b, 1-cyclohexyl-2-[(4αS)-1-(4-fluorophenyl)-5-(hydroxymethyl)-4α-methyl-1,4,4α,5,6,7-hexahydrocyclopenta[f]indazol-5-yl]ethanol]",2.3
30,"C[C@]12Cc3cnn(-c4ccccc4)c3C=C1CC[C@@]2(CO)CC(O)c1ccccn1 (single isomer, unassigned) [Example 23b]",3.3
